{"source": "patent US4038401A", "about": "“Novel indole derivative” (John Wyeth & Brother Limited, priority 1976, dated 1977)", "key": {"[1]": {"test_system": "rats", "assay_type": "in vivo, rat", "conditions": "for Duration of sedation: 50 mg/kg; for Increase in comparative sedation: oral 10, 25 or 50 mg/kg, perphenazine and haloperidol rated at 10", "experimental": "Twelve rats of each type were split into […] and dosed orally with 10, 25 or 50 mg/kg of the test compound in a vehicle comprising hydroxymethylcellulose (0.5%) in (0.9% saline). Each rat was housed singly, after dosing and observed closely for 2 hours, then intermittently for a further four hours, behavioural changes being noted.\nThe animals were left at least 72 hours before re-dosing to ensure the disappearance of residual hypotensive and sedative effects."}, "[2]": {"test_system": "rats rendered hypertensive", "test": "Anti-hypertensive activity in renal hypertensive rats (systolic pressure)", "assay_type": "in vivo, rat", "conditions": "12 rats", "experimental": "Anti-hypertensive activity is determined by the following procedure:\nMale or female rats are rendered hypertensive by applying a figure of 8 ligature around one kidney and contralateral nephrectomy. Blood pressure stabilises at a hypertensive level after 6 weeks. Systolic pressure is measured indirectly using an E and M Pneumatic Tail Pulse Transducer and a Devices M2 recorder. A control group of rats is run with each group reacted with drug. Each group usually consists of six rats. Drugs are usually administered by the IP or oral routes. Pressures are read prior to drug administration and at 2 and 24 hours thereafter.\nBlood pressure is expressed as % of control values at x hours after an oral dose of 25 mg/kg. In the test 12 rats were used instead of the usual 6."}, "[3]": {"test": "Hypotensive and anti-hypertensive activity (statement in words)", "assay_type": "in vivo", "conditions": "compared with indoramin"}, "[4]": {"test": "in vivo", "conditions": "mouse"}, "[5]": {"test_system": "laboratory animals", "test": "Toxicity and sedation, tests in laboratory animals (statement in words)", "conditions": "compared with indoramin"}, "[6]": {"conditions": "normotensive rat (male and female)"}, "[7]": {"conditions": "renal hypertensive rat (female)"}, "[8]": {"conditions": "spontaneous hypertensive rat (male)"}, "[9]": {"conditions": "2 hours after oral dose of 25 mg/kg"}, "[10]": {"conditions": "6 hours after oral dose of 25 mg/kg"}, "[11]": {"conditions": "24 hours after oral dose of 25 mg/kg"}}, "note": "Where two headings read alike, the source gives them in different places.", "data": [{"smiles": "O=C(NC1CCN(CCCC(=O)c2c[nH]c3ccccc23)CC1)c1ccccc1", "note": "[4-Benzamido-1-[4-(indol-3-yl)-4-oxobutyl]piperidine]", "values": [{"measurement": "Duration of sedation", "setting": "[1]; [6]", "value": 6, "unit": "h"}, {"measurement": "Duration of sedation", "setting": "[1]; [7]", "value": 6, "unit": "h"}, {"measurement": "Duration of sedation", "setting": "[1]; [8]", "value": 6, "unit": "h"}, {"measurement": "Approximate sedative potency ratio", "setting": "[1]; [6]", "value": 1}, {"measurement": "Increase in comparative sedation", "setting": "[1]; normotensive rats", "value": 1}, {"measurement": "Approximate sedative potency ratio", "setting": "[1]; [7]", "value": 1}, {"measurement": "Increase in comparative sedation", "setting": "[1]; renal hypertensive rats", "value": 2}, {"measurement": "Approximate sedative potency ratio", "setting": "[1]; [8]", "value": 1}, {"measurement": "Increase in comparative sedation", "setting": "[1]; spontaneously hypertensive rats", "value": 1}, {"measurement": "Blood pressure expressed as % of control values", "setting": "[2]; [9]", "value": "60.9 % of control values"}, {"measurement": "Blood pressure expressed as % of control values", "setting": "[2]; [10]", "value": "62.0 % of control values"}, {"measurement": "Blood pressure expressed as % of control values", "setting": "[2]; [11]", "value": "99.0 % of control values"}, {"measurement": "hypotensive and anti-hypertensive activity", "setting": "[3]", "value": "comparable to that of indoramin"}, {"measurement": "LD50", "setting": "[4]; ip", "value": 542, "unit": "mg/kg"}, {"measurement": "LD50 at 24 h", "setting": "[4]; ip", "value": 1000, "unit": "mg/kg"}, {"measurement": "LD50", "setting": "[4]; po", "value": "> 4000", "unit": "mg/kg"}, {"measurement": "LD50 at 24 h", "setting": "[4]; po", "value": "> 4000", "unit": "mg/kg"}, {"measurement": "sedation", "setting": "[5]", "value": "much less sedative"}, {"measurement": "toxicity", "setting": "[5]", "value": "much less toxic"}]}, {"smiles": "O=C(NC1CCN(CCc2c[nH]c3ccccc23)CC1)c1ccccc1", "note": "[Indoramin, 3-[2(4-benzamidopiperid-1-xl)ethyl] indole, reference compound]", "values": [{"measurement": "Blood pressure expressed as % of control values", "setting": "[2]; [9]", "value": "78.0 % of control values"}, {"measurement": "Blood pressure expressed as % of control values", "setting": "[2]; [10]", "value": "76.0 % of control values"}, {"measurement": "Blood pressure expressed as % of control values", "setting": "[2]; [11]", "value": "98.0 % of control values"}]}, {"smiles": "O=C(CCCN1CCC(O)(c2ccc(Cl)cc2)CC1)c1ccc(F)cc1", "note": "[haloperidol, reference compound]", "values": [{"measurement": "Sedation rating of comparison tranquillisers", "setting": "[1]; rats, reference rating of the scale", "value": 10}]}, {"smiles": "OCCN1CCN(CCCN2c3ccccc3Sc3ccc(Cl)cc32)CC1", "note": "[perphenazine, reference compound]", "values": [{"measurement": "Sedation rating of comparison tranquillisers", "setting": "[1]; rat, in vivo", "value": 10}]}]}
